# In PubChem BioAssay AID1963841 (Molecular Pharmacology Branch, DTP, NCI, 2024):
# Test system: 439559-082-T-J2-PDC spheroid viability
# Test: Anticancer human tumor 439559-082-T-J2-PDC patient-derived colon adenocarcinoma cell line growth inhibition [POLQ]
# Conditions: spheroids with HUVEC and MSC; for IC50: curve of first compound; for viability, T/C: stronger effect = lower value
# In short: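 Three-cell-type spheroids modelling solid tumor plus stroma served as the readout system; POL inhibitors were tested individually and in combination, concentration ranges set by clinical Cmax where known.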
# [1] = second compound 0.0316 µM, first compound 0.0316 µM
# [2] = second compound 0.0316 µM, first compound 0.1 µM
# [3] = second compound 0.0316 µM, first compound 0.316 µM
# [4] = second compound 0.0316 µM, first compound 1 µM
# [5] = second compound 0.0316 µM, first compound 3.16 µM
# [6] = second compound 0.0316 µM, first compound 10 µM
# [7] = second compound 0.1 µM, first compound 0.0316 µM
# [8] = second compound 0.1 µM, first compound 0.1 µM
# [9] = second compound 0.1 µM, first compound 0.316 µM
# [10] = second compound 0.1 µM, first compound 1 µM
# [11] = second compound 0.1 µM, first compound 3.16 µM
# [12] = second compound 0.1 µM, first compound 10 µM
# [13] = second compound 0.316 µM, first compound 0.0316 µM
# [14] = second compound 0.316 µM, first compound 0.1 µM
# [15] = second compound 0.316 µM, first compound 0.316 µM
# [16] = second compound 0.316 µM, first compound 1 µM
# [17] = second compound 0.316 µM, first compound 3.16 µM
# [18] = second compound 0.316 µM, first compound 10 µM
# [19] = second compound 1 µM, first compound 0.0316 µM
# [20] = second compound 1 µM, first compound 0.1 µM
# [21] = second compound 1 µM, first compound 0.316 µM
# [22] = second compound 1 µM, first compound 1 µM
# [23] = second compound 1 µM, first compound 3.16 µM
# [24] = second compound 1 µM, first compound 10 µM
# [25] = second compound 3.16 µM, first compound 0.0316 µM
# [26] = second compound 3.16 µM, first compound 0.1 µM
# [27] = second compound 3.16 µM, first compound 0.316 µM
# [28] = second compound 3.16 µM, first compound 1 µM
# [29] = second compound 3.16 µM, first compound 3.16 µM
# [30] = second compound 3.16 µM, first compound 10 µM
# [31] = second compound 10 µM, first compound 0.0316 µM
# [32] = second compound 10 µM, first compound 0.1 µM
# [33] = second compound 10 µM, first compound 0.316 µM
# [34] = second compound 10 µM, first compound 1 µM
# [35] = second compound 10 µM, first compound 3.16 µM
# [36] = second compound 10 µM, first compound 10 µM
# 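Further: spheroids exposed to compounds for seven days before readout.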
# 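Wherever viability, T/C is given: 100% = DMSO vehicle control viability.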
smiles,measurement,setting,value
CC1COCCN1c1cc(C2(S(C)(=N)=O)CC2)nc(-c2ccnc3[nH]ccc23)n1 (stereo unspecified) + Cc1cccc(N(C)C(=O)C2C(O)CCN2c2nc(C)cc(C(F)(F)F)c2C#N)c1,IC50,second compound 0.0316 µM,> 10 µM
same,IC50,second compound 0.1 µM,> 10 µM
same,IC50,second compound 0.316 µM,> 10 µM
same,IC50,second compound 1 µM,> 10 µM
same,IC50,second compound 3.16 µM,> 10 µM
same,IC50,second compound 10 µM,> 10 µM
same,"viability, T/C",[1],105%
same,"viability, T/C",[2],102%
same,"viability, T/C",[3],104%
same,"viability, T/C",[4],92.4%
same,"viability, T/C",[5],83.4%
same,"viability, T/C",[6],70.5%
same,"viability, T/C",[7],98.6%
same,"viability, T/C",[8],101%
same,"viability, T/C",[9],97.9%
same,"viability, T/C",[10],101%
same,"viability, T/C",[11],84.7%
same,"viability, T/C",[12],70.4%
same,"viability, T/C",[13],97.3%
same,"viability, T/C",[14],97.8%
same,"viability, T/C",[15],103%
same,"viability, T/C",[16],94.5%
same,"viability, T/C",[17],94.2%
same,"viability, T/C",[18],75%
same,"viability, T/C",[19],102%
same,"viability, T/C",[20],98.2%
same,"viability, T/C",[21],101%
same,"viability, T/C",[22],92.1%
same,"viability, T/C",[23],89.1%
same,"viability, T/C",[24],69.2%
same,"viability, T/C",[25],101%
same,"viability, T/C",[26],103%
same,"viability, T/C",[27],99.9%
same,"viability, T/C",[28],96.6%
same,"viability, T/C",[29],92.2%
same,"viability, T/C",[30],68.3%
same,"viability, T/C",[31],95%
same,"viability, T/C",[32],89.6%
same,"viability, T/C",[33],96%
same,"viability, T/C",[34],96.6%
same,"viability, T/C",[35],80.5%
same,"viability, T/C",[36],59.1%
COc1cccc(OCCCN)c1-c1cc(Nc2cnc(C#N)cn2)n[nH]1 + Nc1ccc(C#CCN(C(=O)Cc2ncc(C(F)(F)F)cc2C(F)(F)F)c2ccc(F)cc2)nn1,IC50,second compound 0.0316 µM,0.336 µM
same,IC50,second compound 0.1 µM,0.293 µM
same,IC50,second compound 0.316 µM,0.32 µM
same,IC50,second compound 1 µM,0.29 µM
same,IC50,second compound 3.16 µM,0.223 µM
same,IC50,second compound 10 µM,0.0702 µM
same,"viability, T/C","second compound 0.0316 µM, first compound 0.00316 µM",105%
same,"viability, T/C","second compound 0.0316 µM, first compound 0.01 µM",95.1%
same,"viability, T/C",[1],82.2%
same,"viability, T/C",[2],68.4%
same,"viability, T/C",[3],58.2%
same,"viability, T/C",[4],23.1%
same,"viability, T/C","second compound 0.1 µM, first compound 0.00316 µM",104%
same,"viability, T/C","second compound 0.1 µM, first compound 0.01 µM",99.3%
same,"viability, T/C",[7],79.9%
same,"viability, T/C",[8],66.7%
same,"viability, T/C",[9],53%
same,"viability, T/C",[10],22.8%
same,"viability, T/C","second compound 0.316 µM, first compound 0.00316 µM",101%
same,"viability, T/C","second compound 0.316 µM, first compound 0.01 µM",97.6%
same,"viability, T/C",[13],85.4%
same,"viability, T/C",[14],69%
same,"viability, T/C",[15],51.6%
same,"viability, T/C",[16],24.8%
same,"viability, T/C","second compound 1 µM, first compound 0.00316 µM",106%
same,"viability, T/C","second compound 1 µM, first compound 0.01 µM",105%
same,"viability, T/C",[19],76.8%
same,"viability, T/C",[20],70.6%
same,"viability, T/C",[21],50.6%
same,"viability, T/C",[22],22.4%
same,"viability, T/C","second compound 3.16 µM, first compound 0.00316 µM",106%
same,"viability, T/C","second compound 3.16 µM, first compound 0.01 µM",95.6%
same,"viability, T/C",[25],83.2%
same,"viability, T/C",[26],67.7%
same,"viability, T/C",[27],41.6%
same,"viability, T/C",[28],20.4%
same,"viability, T/C","second compound 10 µM, first compound 0.00316 µM",107%
same,"viability, T/C","second compound 10 µM, first compound 0.01 µM",96%
same,"viability, T/C",[31],69.3%
same,"viability, T/C",[32],42.4%
same,"viability, T/C",[33],23.8%
same,"viability, T/C",[34],20.7%
CCc1cc2c(N3CCc4c(cc(Cn5ccnc5)cc4-c4cn(C)nc4C(F)(F)F)C3=O)cc(C)nc2c(OC)n1 + Cc1cccc(N(C)C(=O)C2C(O)CCN2c2nc(C)cc(C(F)(F)F)c2C#N)c1,IC50,second compound 0.0316 µM,> 10 µM
same,IC50,second compound 0.1 µM,> 10 µM
same,IC50,second compound 0.316 µM,> 10 µM
same,IC50,second compound 1 µM,> 10 µM
same,IC50,second compound 3.16 µM,> 10 µM
same,IC50,second compound 10 µM,> 10 µM
same,"viability, T/C",[1],105%
same,"viability, T/C",[2],101%
same,"viability, T/C",[3],101%
same,"viability, T/C",[4],98.3%
same,"viability, T/C",[5],95.1%
same,"viability, T/C",[6],97.3%
same,"viability, T/C",[7],101%
same,"viability, T/C",[8],96.9%
same,"viability, T/C",[9],90.2%
same,"viability, T/C",[10],77.2%
same,"viability, T/C",[11],111%
same,"viability, T/C",[12],105%
same,"viability, T/C",[13],94.7%
same,"viability, T/C",[14],95.3%
same,"viability, T/C",[15],105%
same,"viability, T/C",[16],81%
same,"viability, T/C",[17],90.6%
same,"viability, T/C",[18],89.8%
same,"viability, T/C",[19],96.6%
same,"viability, T/C",[20],104%
same,"viability, T/C",[21],95.8%
same,"viability, T/C",[22],95.7%
same,"viability, T/C",[23],99.6%
same,"viability, T/C",[24],94.9%
same,"viability, T/C",[25],111%
same,"viability, T/C",[26],93.6%
same,"viability, T/C",[27],87.6%
same,"viability, T/C",[28],92.2%
same,"viability, T/C",[29],107%
same,"viability, T/C",[30],94%
same,"viability, T/C",[31],94.8%
same,"viability, T/C",[32],111%
same,"viability, T/C",[33],80.7%
same,"viability, T/C",[34],91.5%
same,"viability, T/C",[35],98.1%
same,"viability, T/C",[36],86%
